# What was measured:
# [1] = molecular target: T1, human 5-HT1A receptor (Homo sapiens, UniProt P08908); assay: 5-HT1A receptor binding assay; details: preclinical studies
# T1 construct: expressed in transfected cells; host or cells: HEK293 cells
# T1 sequence (P08908 1-422): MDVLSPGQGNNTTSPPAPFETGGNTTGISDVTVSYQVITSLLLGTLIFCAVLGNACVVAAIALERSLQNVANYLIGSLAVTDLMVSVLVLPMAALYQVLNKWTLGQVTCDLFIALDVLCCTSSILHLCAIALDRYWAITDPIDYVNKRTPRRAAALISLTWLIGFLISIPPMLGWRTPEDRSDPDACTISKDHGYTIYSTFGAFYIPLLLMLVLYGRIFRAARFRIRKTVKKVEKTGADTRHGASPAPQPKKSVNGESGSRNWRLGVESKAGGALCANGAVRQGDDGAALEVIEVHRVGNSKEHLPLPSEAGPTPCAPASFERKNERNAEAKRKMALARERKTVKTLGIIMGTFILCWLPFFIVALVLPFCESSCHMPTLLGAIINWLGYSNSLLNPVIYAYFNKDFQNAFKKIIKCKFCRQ
# Experimental: Membranes are prepared for binding using the human 5-HT1A receptor expressed in HEK293 cells. Cells are collected and ruptured using a dounce homogenizer. The cells are spun at 18000×g for 10 minutes and the pellet is resuspended in assay buffer, frozen in liquid nitrogen and kept at −80° C. until the day of the assay.
# A total of 30 ug protein is used per well. The assay is carried out in 96-deep-well plates. The assay buffer is 50 mM HEPES containing 2.5 mM MgCl2 and 2 mM EGTA. The membrane preparation is incubated at 25° C. for 60 minutes with 0.1 nM to 1000 nM test compound and 1 nM 3H-8-OH-DPAT. […] serotonin serves as blocking agent to determine non-specific binding. The reaction is terminated by the addition of 1 ml of ice cold 50 mM HEPES buffer and rapid filtration through a Brandel Cell Harvester using Whatman GF/B filters. The filter pads are counted in an LKB Trilux liquid scintillation counter. IC50 values are determined using non-linear regression by Excel-fit.
# [2] = Clinical studies in volunteers orally dosed with buspirone, blood plasma levels; format: in vivo, human; details: compared to buspirone blood plasma levels
# [3] = tested on: Harlan Sprague-Dawley rat pups; assay: Rat pup isolation-induced ultrasonic vocalization test; format: in vivo; details: for anxiolytic activity (ultrasonic vocalizations emitted by rat pups): dose levels of 0.3 and 1 mg/kg s.c.
# Experimental: Harlan Sprague-Dawley rat pups (male and female) were housed in polycarbonate cages with the dam until 9-11 days old. Thirty minutes before testing, pups were removed from the dam, placed into a new cage with a small amount of home bedding and brought into the lab and placed under a light to maintain body temperature at 37° C. Pups were then weighed, sexed, marked and returned to the litter group until behavioral assessment. Testing took place in a Plexiglas recording chamber that contained a metal plate maintained at (18-20° C.) with a 5×5 cm grid drawn on the plate. A microphone was suspended 10 cm above the plate to record ultrasonic vocalizations. Ultrasonic calls were recorded using the Noldus UltraVox system providing online analysis of the frequency and duration of calls. The number of grid cells entered by the pup was also collected by visual scoring. […] Immediately following the collection of the baseline measures, pups were injected with vehicle or drug subcutaneously at the nape of the neck and returned to its littermates. Thirty minutes later, pups were retested on each of the dependent measures (vocalization and grid cell crossings) to assess drug effects. Unless otherwise specified, each pup was used only once. Baseline differences and percent change from baseline for the frequency of ultrasonic vocalizations and grid cell crossings were analyzed using a one-way ANOVA. Bonferroni/Dunn post hoc comparisons were performed to assess the acute drug effects with vehicle control. Log-probit analysis was used to estimate the dose (milligrams per kilogram) of each agonist predicted to inhibit isolation-induced ultrasonic vocalizations by 50% (ID50). All comparison were made with an experimental type I error rate (α) set at 0.05.
# Doses for each drug were administered in an irregular order across several litters. S-6-hydroxy-buspirone and racemic 6-hydroxy-buspirone were dissolved in physiological saline (0.9% NaCl; vehicle). All injections were administered subcutaneously in a volume of 10 ml/kg. Doses of the drug refer to weight of the salt.
# [4] = Pharmacokinetic studies with 6-hydroxy-buspirone, clearance from the bloodstream; details: in vivo
clearance from the bloodstream compared with the R-enantiomer [4],reduced clearance of S- over R- [4],SMILES,affinity for the human 5-HT1A receptor [1],time course of blood plasma levels [2],anxiolytic activity (ultrasonic vocalizations emitted by rat pups) [3],anxiolytic response in the rat pup ultrasonic vocalization test ([3]; functional testing),"animal movement, measured by crossing grid boundary lines ([3]; rat pups, compared to the animals dosed with the single enantiomer)"
,,O=C1CC2(CCCC2)CC(=O)N1CCCCN1CCN(c2ncccn2)CC1 [buspirone],strong affinity,,,,
,,O=C1CC2(CCCC2)C(O)C(=O)N1CCCCN1CCN(c2ncccn2)CC1 (racemic) [6-hydroxy-buspirone],strong affinity,sustained,Statistically significant anxiolytic activity,dose-dependent anxiolytic response,appeared to be reduced
cleared more slowly,about three-fold,O=C1CC2(CCCC2)[C@H](O)C(=O)N1CCCCN1CCN(c2ncccn2)CC1 [S-6-hydroxy-buspirone],,,Statistically significant anxiolytic activity,,

# Reference: US6821976B2, “S-6-hydroxy-buspirone” (Bristol-Myers Squibb Company, priority 2001, dated 2004)
